According to patent US6753296B1, “Method for improving plant growth” (priority 2002, dated 2004):

Columns and labels:
Format in all cases: in vivo
Potato = experiment: Crop yield of treated potato tubers; conditions: potato tubers treated at 500 g per 100 kg seed; harvested at maturity; vs untreated tubers
Experimental: Potato tubers are treated with the composition of the invention containing Imidacloprid, at a rate of 500 g Imidacloprid per 100 kg seed and are planted following procedures which correspond to conditions found in practice. The crop is harvested from the field at maturity. Untreated tubers from the same origin are used for comparison purposes.

Canola = experiment: Emergence of canola from treated seed; conditions: seed treatment 300 g per 100 kg seed; vs untreated seeds
Experimental: Canola seed is treated with the composition of the invention containing Thiamethoxam, at a rate of 300 g Thiamethoxam per 100 kg seed, and is seeded following procedures which correspond to conditions found in practice. Untreated seeds from the same origin are used for comparison purposes. Emergence (plants per meter) is evaluated. In the case of treated seeds, about 20% more plants per meter emerge that in the case of untreated plants.

[1] = system: Rice (Orvza sativa L. cv. Nihonbare); experiment: Vigor of rice after drench treatment
Experimental: (§1) Plant are grown in a commercially available pathogen-free soil mixture. 2 weeks (eggplants 3 weeks) after planting seedlings are transplanted into 600 ml pots and drench treated with 10 mg Thiamethoxam in 20 ml water per pot. They were fertilised once or twice a week. Up to 10 weeks after treatment, fresh- and dry-weight of shoots and roots and numbers of leaves are determined. Protein content is measured by the method of Bradford (1976, Anal. Biochem., 72, 248-254) with BSA (bovine serum albumin) as standard: Homogenisation of leaf material in liquid N2 in a mortar. Extraction in phosphate buffer (pH 7.5, 0.1M, 2/1 vol/weight). After centrifugation supematant is separated from pellet and stored at −20° C. until protein determination. For comparison of treated and check, mg proteing/g fresh weight is calculated.
(§2) Tables B2 and B3: Differences between treated plants and Check given as factors (e.g. fresh weight of treated/Fresh weight of check). Factors >1 indicate an enhancement of vigor of treated plants. FW: fresh weight; DW: dry weight; Protein ((mg/g treated plant)/(mg/g check))

[2] = system: Eggplant (Solanum melongena L. cv. Marfa); experiment: Vigor of eggplant after drench treatment
Experimental: as §1, §2

For `O=[N+]([O-])NC1=NCCN1Cc1ccc(Cl)nc1` [Imidacloprid], the Crop yield (Potato) was “significantly higher”.
In the case of `CN1COCN(Cc2cnc(Cl)s2)/C1=N\[N+](=O)[O-]` [Thiamethoxam], the “Emergence (plants per meter), more plants than untreated” value (Canola) is reported as “about 20%”, the “Protein ((mg/g treated plant)/(mg/g check))” value (“Protein” below) ([1]; week 1, drench 10 mg per pot) is reported as 1.1 and the “Root DW (factor treated/check)” value ([1]; week 1, drench 10 mg per pot) is reported as 0.8. The “Root FW (factor treated/check)” value ([1]; week 1, drench 10 mg per pot) was 1.0, the “Shoot DW (factor treated/check)” value ([1]; week 1, drench 10 mg per pot) was 1.0 and the “Shoot FW (factor treated/check)” value ([1]; week 1, drench 10 mg per pot) was 1.0. The “Size (factor treated/check)” value ([1]; week 1, drench 10 mg per pot) was 1.0, the “Protein” value ([1]; week 2, drench 10 mg per pot) was 1.0 and the “Root DW (factor treated/check)” value ([1]; week 2, drench 10 mg per pot) was 1.1. The “Root FW (factor treated/check)” value ([1]; week 2, drench 10 mg per pot) was 0.8, the “Shoot DW (factor treated/check)” value ([1]; week 2, drench 10 mg per pot) was 1.1 and the “Shoot FW (factor treated/check)” value ([1]; week 2, drench 10 mg per pot) was 1.0. The “Size (factor treated/check)” value ([1]; week 2, drench 10 mg per pot) was 1.0, the “Protein” value ([1]; week 3, drench 10 mg per pot) was 1.0 and the “Root DW (factor treated/check)” value ([1]; week 3, drench 10 mg per pot) was 1.3. The “Root FW (factor treated/check)” value ([1]; week 3, drench 10 mg per pot) was 0.6, the “Shoot DW (factor treated/check)” value ([1]; week 3, drench 10 mg per pot) was 1.3 and the “Shoot FW (factor treated/check)” value ([1]; week 3, drench 10 mg per pot) was 1.2. For the same compound, the “Size (factor treated/check)” value ([1]; week 3, drench 10 mg per pot) was 1.0, the “Protein” value ([1]; week 4, drench 10 mg per pot) was 1.0 and the “Root DW (factor treated/check)” value ([1]; week 4, drench 10 mg per pot) was 1.4. For the same compound, the “Root FW (factor treated/check)” value ([1]; week 4, drench 10 mg per pot) was 1.5, the “Shoot DW (factor treated/check)” value ([1]; week 4, drench 10 mg per pot) was 1.2 and the “Shoot FW (factor treated/check)” value ([1]; week 4, drench 10 mg per pot) was 1.3. For the same compound, the “Size (factor treated/check)” value ([1]; week 4, drench 10 mg per pot) was 1.1, the “Protein” value ([1]; week 5, drench 10 mg per pot) was 1.0 and the “Root DW (factor treated/check)” value ([1]; week 5, drench 10 mg per pot) was 0.9. The “Root FW (factor treated/check)” value ([1]; week 5, drench 10 mg per pot) was 1.0, the “Shoot DW (factor treated/check)” value ([1]; week 5, drench 10 mg per pot) was 1.1 and the “Shoot FW (factor treated/check)” value ([1]; week 5, drench 10 mg per pot) was 1.2. The “Size (factor treated/check)” value ([1]; week 5, drench 10 mg per pot) was 1.1, the “Protein” value ([1]; week 6, drench 10 mg per pot) was 1.0 and the “Root DW (factor treated/check)” value ([1]; week 6, drench 10 mg per pot) was 1.5. The “Root FW (factor treated/check)” value ([1]; week 6, drench 10 mg per pot) was 1.6, the “Shoot DW (factor treated/check)” value ([1]; week 6, drench 10 mg per pot) was 1.1 and the “Shoot FW (factor treated/check)” value ([1]; week 6, drench 10 mg per pot) was 1.3. The “Size (factor treated/check)” value ([1]; week 6, drench 10 mg per pot) was 1.2, the “Protein” value ([1]; week 7, drench 10 mg per pot) was 1.1 and the “Root DW (factor treated/check)” value ([1]; week 7, drench 10 mg per pot) was 1.3. For the same compound, the “Root FW (factor treated/check)” value ([1]; week 7, drench 10 mg per pot) was 1.3, the “Shoot DW (factor treated/check)” value ([1]; week 7, drench 10 mg per pot) was 1.2 and the “Shoot FW (factor treated/check)” value ([1]; week 7, drench 10 mg per pot) was 1.3. The “Size (factor treated/check)” value ([1]; week 7, drench 10 mg per pot) was 1.1, the “Protein” value ([1]; week 8, drench 10 mg per pot) was 1.0 and the “Root DW (factor treated/check)” value ([1]; week 8, drench 10 mg per pot) was 1.5. For the same compound, the “Root FW (factor treated/check)” value ([1]; week 8, drench 10 mg per pot) was 1.8, the “Shoot DW (factor treated/check)” value ([1]; week 8, drench 10 mg per pot) was 1.4 and the “Shoot FW (factor treated/check)” value ([1]; week 8, drench 10 mg per pot) was 1.4. For the same compound, the “Size (factor treated/check)” value ([1]; week 8, drench 10 mg per pot) was 1.1, the “Protein” value ([1]; week 9, drench 10 mg per pot) was 0.9 and the “Root DW (factor treated/check)” value ([1]; week 9, drench 10 mg per pot) was 1.0. The “Root FW (factor treated/check)” value ([1]; week 9, drench 10 mg per pot) was 1.0, the “Shoot DW (factor treated/check)” value ([1]; week 9, drench 10 mg per pot) was 1.2 and the “Shoot FW (factor treated/check)” value ([1]; week 9, drench 10 mg per pot) was 1.2. The “Size (factor treated/check)” value ([1]; week 9, drench 10 mg per pot) was 1.2, the “Protein” value ([1]; week 10, drench 10 mg per pot) was 0.7 and the “Root DW (factor treated/check)” value ([1]; week 10, drench 10 mg per pot) was 2.0. The “Root FW (factor treated/check)” value ([1]; week 10, drench 10 mg per pot) was 2.0, the “Shoot DW (factor treated/check)” value ([1]; week 10, drench 10 mg per pot) was 1.3 and the “Shoot FW (factor treated/check)” value ([1]; week 10, drench 10 mg per pot) was 1.3. The “Size (factor treated/check)” value ([1]; week 10, drench 10 mg per pot) was 1.3, the “Protein” value ([2]; week 1, drench 10 mg per pot) was 1.0 and the “Root DW (factor treated/check)” value ([2]; week 1, drench 10 mg per pot) was 1.0. The “Root FW (factor treated/check)” value ([2]; week 1, drench 10 mg per pot) was 1.0, the “Shoot DW (factor treated/check)” value ([2]; week 1, drench 10 mg per pot) was 0.9 and the “Shoot FW (factor treated/check)” value ([2]; week 1, drench 10 mg per pot) was 0.9. For the same compound, the “Size (factor treated/check)” value ([2]; week 1, drench 10 mg per pot) was 1.0, the “Protein” value ([2]; week 2, drench 10 mg per pot) was 1.1 and the “Root DW (factor treated/check)” value ([2]; week 2, drench 10 mg per pot) was 1.2. For the same compound, the “Root FW (factor treated/check)” value ([2]; week 2, drench 10 mg per pot) was 1.2, the “Shoot DW (factor treated/check)” value ([2]; week 2, drench 10 mg per pot) was 1.1 and the “Shoot FW (factor treated/check)” value ([2]; week 2, drench 10 mg per pot) was 0.7. For the same compound, the “Size (factor treated/check)” value ([2]; week 2, drench 10 mg per pot) was 1.1, the “Protein” value ([2]; week 3, drench 10 mg per pot) was 1.0 and the “Root DW (factor treated/check)” value ([2]; week 3, drench 10 mg per pot) was 1.1. The “Root FW (factor treated/check)” value ([2]; week 3, drench 10 mg per pot) was 1.1, the “Shoot DW (factor treated/check)” value ([2]; week 3, drench 10 mg per pot) was 1.1 and the “Shoot FW (factor treated/check)” value ([2]; week 3, drench 10 mg per pot) was 1.2. The “Size (factor treated/check)” value ([2]; week 3, drench 10 mg per pot) was 1.1, the “Protein” value ([2]; week 4, drench 10 mg per pot) was 1.6 and the “Root DW (factor treated/check)” value ([2]; week 4, drench 10 mg per pot) was 1.0. For the same compound, the “Root FW (factor treated/check)” value ([2]; week 4, drench 10 mg per pot) was 1.0, the “Shoot DW (factor treated/check)” value ([2]; week 4, drench 10 mg per pot) was 1.1 and the “Shoot FW (factor treated/check)” value ([2]; week 4, drench 10 mg per pot) was 1.1. For the same compound, the “Size (factor treated/check)” value ([2]; week 4, drench 10 mg per pot) was 1.0, the “Leaf No (factor treated/check)” value ([2]; week 5, drench 10 mg per pot) was 1.1 and the “Protein” value ([2]; week 5, drench 10 mg per pot) was 1.0. For the same compound, the “Root DW (factor treated/check)” value ([2]; week 5, drench 10 mg per pot) was 1.0, the “Root FW (factor treated/check)” value ([2]; week 5, drench 10 mg per pot) was 0.9 and the “Shoot DW (factor treated/check)” value ([2]; week 5, drench 10 mg per pot) was 1.1. The “Shoot FW (factor treated/check)” value ([2]; week 5, drench 10 mg per pot) was 1.0, the “Size (factor treated/check)” value ([2]; week 5, drench 10 mg per pot) was 1.0 and the “Leaf No (factor treated/check)” value ([2]; week 6, drench 10 mg per pot) was 1.3. The “Protein” value ([2]; week 6, drench 10 mg per pot) was 1.1, the “Root DW (factor treated/check)” value ([2]; week 6, drench 10 mg per pot) was 0.9 and the “Root FW (factor treated/check)” value ([2]; week 6, drench 10 mg per pot) was 0.9. For the same compound, the “Shoot DW (factor treated/check)” value ([2]; week 6, drench 10 mg per pot) was 1.3, the “Shoot FW (factor treated/check)” value ([2]; week 6, drench 10 mg per pot) was 1.3 and the “Size (factor treated/check)” value ([2]; week 6, drench 10 mg per pot) was 1.3. The “Leaf No (factor treated/check)” value ([2]; week 7, drench 10 mg per pot) was 1.3, the “Protein” value ([2]; week 7, drench 10 mg per pot) was 1.4 and the “Root DW (factor treated/check)” value ([2]; week 7, drench 10 mg per pot) was 0.7. The “Root FW (factor treated/check)” value ([2]; week 7, drench 10 mg per pot) was 0.8, the “Shoot DW (factor treated/check)” value ([2]; week 7, drench 10 mg per pot) was 1.1 and the “Shoot FW (factor treated/check)” value ([2]; week 7, drench 10 mg per pot) was 1.1. For the same compound, the “Size (factor treated/check)” value ([2]; week 7, drench 10 mg per pot) was 1.2, the “Leaf No (factor treated/check)” value ([2]; week 8, drench 10 mg per pot) was 1.2 and the “Protein” value ([2]; week 8, drench 10 mg per pot) was 1.4. For the same compound, the “Root DW (factor treated/check)” value ([2]; week 8, drench 10 mg per pot) was 0.6, the “Root FW (factor treated/check)” value ([2]; week 8, drench 10 mg per pot) was 0.6 and the “Shoot DW (factor treated/check)” value ([2]; week 8, drench 10 mg per pot) was 0.9. The “Shoot FW (factor treated/check)” value ([2]; week 8, drench 10 mg per pot) was 0.7, the “Size (factor treated/check)” value ([2]; week 8, drench 10 mg per pot) was 1.2 and the “Leaf No (factor treated/check)” value ([2]; week 9, drench 10 mg per pot) was 1.6. For the same compound, the “Protein” value ([2]; week 9, drench 10 mg per pot) was 2.5, the “Root DW (factor treated/check)” value ([2]; week 9, drench 10 mg per pot) was 1.1 and the “Root FW (factor treated/check)” value ([2]; week 9, drench 10 mg per pot) was 0.9. The “Shoot DW (factor treated/check)” value ([2]; week 9, drench 10 mg per pot) was 1.1, the “Shoot FW (factor treated/check)” value ([2]; week 9, drench 10 mg per pot) was 0.7 and the “Size (factor treated/check)” value ([2]; week 9, drench 10 mg per pot) was 1.4. The “Leaf No (factor treated/check)” value ([2]; week 10, drench 10 mg per pot) was 1.4, the “Protein” value ([2]; week 10, drench 10 mg per pot) was 1.3 and the “Root DW (factor treated/check)” value ([2]; week 10, drench 10 mg per pot) was 1.3. For the same compound, the “Root FW (factor treated/check)” value ([2]; week 10, drench 10 mg per pot) was 1.1, the “Shoot DW (factor treated/check)” value ([2]; week 10, drench 10 mg per pot) was 1.1 and the “Shoot FW (factor treated/check)” value ([2]; week 10, drench 10 mg per pot) was 1.1. The “Size (factor treated/check)” value ([2]; week 10, drench 10 mg per pot) was 1.4.
